System: C57BL/6 EOPS male mice
Assay: Effect of metformin and orlistat co-administration on body weight in mice fed with high-fat diet
Type: in vivo
Settings: p.o. mixed with the diet, orlistat 2 mg/kg, metformin 100 mg/kg, mean±s.e.m.
Experimental: This study was designed to evaluate the effects of a combination of metformin and orlistat on body weight.
Animals: C57BL/6 EOPS male mice, weighing approximately 20 g, were used in the study. C57BL/6 EOPS mice are normal mice which, when subjected to a high-fat diet, become obese and develop hyperglycaemia. They were put by 5 into individual cages in a temperature-, humidity- and light-controlled room (21-23° C.±2° C., 12 h-12 h light-dark cycle). […] After acclimatization, they were randomized into groups of 20, based on body weight.
The experimental groups were:
Group 1: mice fed with standard diet
Group 2: mice fed with high-fat diet, treated with orlistat 2 mg/kg p.o., mixed with the diet
Group 3: mice fed with high-fat diet, treated with metformin 100 mg/kg p.o., mixed with the diet
Group 4: mice fed with high-fat diet, treated with orlistat 2 mg/kg p.o. and metformin 100 mg/kg p.o., mixed with the diet.
Body weight was recorded at the beginning of the study, and after one and three weeks of treatment, respectively.
Statistics: All data are presented as mean±s.e.m. Results were subjected to covariance analysis corrected from baseline followed by Turkey-Kramer adjustment for multiple comparisons. A p<0.1 was considered significant (vs. standard diet).

CCCCCCCCCCC[C@@H](C[C@@H]1OC(=O)[C@H]1CCCCCC)OC(=O)[C@H](CC(C)C)NC=O (relative stereo) [Orlistat, [2S-[2α(R*),3β]]-N-formyl-L-leucine 1-[(3-hexyl-4-oxo-2-oxetanyl)methyl]dodecyl ester]
Body weight gain (g) after 1 week: +3.2 ± 0.48 g | Body weight gain (g) after 3 weeks: +5.5 ± 0.63 g

CN(C)C(=N)NC(=N)N [Metformin, 1,1-dimethylbiguanide]
Body weight gain (g) after 1 week: +1.3 ± 0.14 g | Body weight gain (g) after 3 weeks: +3.5 ± 0.25 g

From patent US20070060532A1, “Use of metformin and orlistat for the treatment or prevention of obesity” (Fournier Laboratories Ireland Limited, priority 2004, published 2007)
